Source: US20150164871A1, “Pharmaceutical Compositions for Combination Therapy” (Acesion Pharma, priority 2012, published 2015)
“Also recorded” adds a separate entry of the source.

Columns and labels:
[1] = test system: Isolated, perfused female guinea pig hearts; assay: Effect on atrial effective refractory period (aERP) in Langendorff heart; conditions: for prolongation of aERP from baseline values as compared to time matched controls (in words): administered alone, ICA 100 nmol/L, flecainide 1 μmol/L, ranolazine 3 μmol/L; for percentual prolongation of aERP after 30 minutes of perfusion as compared to the baseline: ICA 0.1 μM, flecainide 1 μM, ranolazine 3 μM, ±SEM
Protocol: (§1) The isolated heart was prepared as follows. Guinea pigs weighing between 350 and 600 g were anesthetized with i.p. injection of 200 mg/kg pentobarbital. In addition, 1000 IU/kg heparin were injected i.p. Respiration was maintained by artificial ventilation(atm air) through a cannula in the trachea (volume, 12 ml/kg; rate, 60 strokes/min). Upon thoracotomy, a perfusion cannula was inserted and fixed in the aorta for retro-grade perfusion. Hearts were mounted in a vertical Langendorff set-up (Hugo Sachs-Harvard Apparatus GmbH, March-Hugstetten, Germany) and perfused with Krebs-Henseleit solution: 120.4 mM NaCl, 4.0 mM KCl, 2.5 mM CaCl2, 0.6 mM MgSO4, 15.3 mM NaHCO3, 0.6 mM NaH2PO4, and 11.5 mM glucose, pH 7.4, at constant oxygenation with O2/CO2 in a 95/5% mixture at 37° C. Four monophasic action potential (MAP) electrodes were placed on the left atrium, the right atrium, the left ventricle, and right ventricle, respectively. A pacing electrode was placed on the right atrium. The electro-cardiogram (ECG) was obtained with three ECG electrodes placed in close proximity to the heart. All data were acquired using the 16-channel PowerLab system (ADInstruments, Oxfordshire, UK). Pacing stimuli were twice the diastolic threshold and with a duration of 2 milliseconds (ms) unless otherwise stated.
(§2) The aERP was measured (10 basic stimuli [called S1] followed by premature S2 stimuli applied with 2-ms decrements) immediately before and at the end of the 30-minute period at pacing rates of 5 Hz and 10 Hz. After the 30 minutes of perfusion with either 100 nmol/L N-(pyridin-2-yl)-4-(pyridin-2-yl)thiazol-2-amine (ICA), 1 μmol/L flecainide, or 3 μmol/L ranolazine, or vehicle, 1 μmol/L ACh was added to the perfusate and induction of AF was attempted 40 times with burst-pacing (50 Hz) for 2 seconds or until sustained (duration>3 min) AF was obtained (test compound dissolved in DMSO in a stock concentration of 10 mMol/L). ICA in a concentration of 100 nmol/L was then tested in combination with either 1 μmol/L flecainide or 3 μmol/L ranolazine using the same protocol as described above in this section.

[2] = test system: Isolated, perfused female guinea pig hearts; assay: Effect on AF duration (ACh plus burst pacing) in Langendorff heart; conditions: for reduction of AF duration as compared to time matched controls (in words): administered alone, ICA 100 nmol/L, flecainide 1 μmol/L, ranolazine 3 μmol/L; for Log AF duration: log(10)-transformed, means±SEM, 1 μmol/L ACh, burst pacing 50 Hz, ICA 0.1 μM, flecainide 1 μM, ranolazine 3 μM
Protocol: as §1, §2

[3] = test system: Isolated, perfused female guinea pig hearts; assay: Dose finding: cardioversion of acetylcholine/burst-pacing induced AF in Langendorff heart; conditions: for cardioversion obtained (animals converted out of animals): within 30 min, AF induced by 1 μmol/L ACh and burst pacing
Protocol: as §1
Isolated, perfused female guinea pig hearts from Dunkin Hartley strain (HsdPoc:DH) continuously paced on the right atrium (300 bpm) were allowed to stabilize, and the atrial effective refractory period (aERP) was measured. AF was induced by 1 μmol/L acetylcholine (ACh) combined with burst pacing (50 Hz, 10V). When sustained (>3minutes) AF was obtained, the test compound from a stock concentration of 10 mMol/L in DMSO was added to the perfusate in a concentration of 100 nmol/L for 30 min. If no cardioversion was obtained within 30 minutes, the concentration of the compound in the perfusate was increased to 300 nmol/L. If no cardioversion was obtained within an additional time period of 30 minutes, the concentration of the compound in the perfusate was increased to 1.0 μmol/L. If no cardioversion was obtained within a further time period of 30 minutes, the concentration of the compound in the perfusate was increased to 3.0 μmol/L. If no cardioversion was obtained within an additional time period of 30 minutes, the concentration of the compound in the perfusate was increased to 10.0 μmol/L. If no cardioversion was obtained within an additional time period of 30 minutes, the concentration of the compound in the perfusate was increased to 30.0 μmol/L. Cardioversion was considered obtained if sinus rhythm was obtained within 30 minutes of one of the above mentioned drug applications, and if sustained AF could not be reinduced with burst pacing stimulation immediately after this.

[4] = concentration 3.0 μM in perfusate

Compound	prolongation of aERP from baseline values as compared to time matched controls (in words) [1]	percentual prolongation of aERP after 30 minutes of perfusion as compared to the baseline ([1]; pacing frequency 5 Hz) [%]	percentual prolongation of aERP after 30 minutes of perfusion as compared to the baseline ([1]; pacing frequency 10 Hz) [%]	reduction of AF duration as compared to time matched controls (in words) [2]	Log AF duration [2]	cardioversion obtained (animals converted out of animals) ([3]; concentration 0.3 μM in perfusate)	cardioversion obtained (animals converted out of animals) [3, 4]	cardioversion obtained (animals converted out of animals) ([3]; concentration 10.0 μM in perfusate)	cardioversion obtained (animals converted out of animals) ([3]; concentration 1.0 μM in perfusate)	No cardioversion (animals out of animals) ([3]; stepwise 0.1 to 30.0 μM, 30 min each)
c1ccc(Nc2nc(-c3ccccn3)cs2)nc1 [ICA, N-(pyridin-2-yl)-4-(pyridin-2-yl)thiazol-2-amine]	no significant prolongation of aERP; also recorded: does not cause any significant effects	112.5 ± 3.8	119.3 ± 10.6	no significant reduction of AF duration; also recorded: does not cause any significant effects	1.29 ± 0.15	4/4				
O=C(NCC1CCCCN1)c1cc(OCC(F)(F)F)ccc1OCC(F)(F)F (stereo not drawn) [Flecainide, N-(piperidin-2-ylmethyl)-2,5-bis(2,2,2-trifluoroethoxy)benzamide]	no significant prolongation of aERP; also recorded: sub-effective	123.0 ± 2.6	124.6 ± 8.0	no significant reduction of AF duration; also recorded: sub-effective	1.27 ± 0.14		2/4	2/4		
COc1ccccc1OCC(O)CN1CCN(CC(=O)Nc2c(C)cccc2C)CC1 (stereo not drawn) [Ranolazine, N-(2,6-dimethylphenyl)-2-[4-[2-hydroxy-3-(2-methoxyphenoxy)-propyl]piperazin-1-yl]acetamide]	no significant prolongation of aERP; also recorded: sub-effective	114.81 ± 12.7	114.4 ± 9.9	no significant reduction of AF duration; also recorded: sub-effective	1.11 ± 0.23		2/5		1/5	2/5
